Measurements reported in patent US10508120B2, “TYK2 inhibitors and uses thereof” (Nimbus Lakshmi, Inc., priority 2017, dated 2019).

Legend:
[1] = target: human TYK2 (JH2domain-pseudokinase) (Homo sapiens (Human), UniProt P29597); test: TYK2 JH2 Domain Binding Assay (KINOMEscan)
Summary of the method: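 Pseudokinase domain binding was measured by qPCR of tagged, bead-retained kinase after 1 h room-temperature competition, with 0.9% DMSO and compound up to 30,000 nM in 3-fold steps. Hill-equation Kd, duplicate.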

[2] = target: Tyk2 kinase domain (DH1) (Homo sapiens (Human), UniProt P29597); test: Tyk2 Radioactive Kinase Assay; assay type: biochemical; details: compound at 10 μM, ATP 10 μM; for inhibition at 10 µM: read-out: Tyk2 JH1% Inhibition @ 10 μM
Summary of the method: (§1)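 Single-point screen: 10 μM test compound, radioactive kinase read-out, percent inhibition reported for each kinase domain.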

[3] = target: JAK2 kinase domain (JH1) (Homo sapiens (Human), UniProt O60674); test: JAK2 Radioactive Kinase Assay; assay type: biochemical; details: compound at 10 μM, ATP 10 μM; for inhibition at 10 µM: read-out: JAK2 JH1% Inhibition @ 10 μM
Summary of the method: as §1

human TYK2 (JH2domain-pseudokinase), sequence (P29597 556-888): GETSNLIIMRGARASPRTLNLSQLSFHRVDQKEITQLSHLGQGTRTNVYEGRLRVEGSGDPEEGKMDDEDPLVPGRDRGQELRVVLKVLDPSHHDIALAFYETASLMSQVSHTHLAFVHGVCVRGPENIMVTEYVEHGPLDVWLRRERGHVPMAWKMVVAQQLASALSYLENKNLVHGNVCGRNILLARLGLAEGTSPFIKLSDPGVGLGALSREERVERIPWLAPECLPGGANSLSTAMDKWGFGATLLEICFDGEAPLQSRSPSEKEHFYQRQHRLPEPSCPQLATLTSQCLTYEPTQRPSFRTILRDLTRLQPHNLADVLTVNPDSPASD
Tyk2 kinase domain (DH1), sequence (P29597 897-1176): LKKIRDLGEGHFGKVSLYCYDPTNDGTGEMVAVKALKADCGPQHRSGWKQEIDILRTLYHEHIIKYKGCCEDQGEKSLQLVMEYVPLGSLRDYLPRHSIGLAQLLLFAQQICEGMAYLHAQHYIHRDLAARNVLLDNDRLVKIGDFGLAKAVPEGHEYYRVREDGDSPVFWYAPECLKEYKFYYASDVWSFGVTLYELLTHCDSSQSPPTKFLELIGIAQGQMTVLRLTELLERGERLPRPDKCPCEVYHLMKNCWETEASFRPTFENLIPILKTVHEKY
JAK2 kinase domain (JH1), sequence (O60674 849-1124): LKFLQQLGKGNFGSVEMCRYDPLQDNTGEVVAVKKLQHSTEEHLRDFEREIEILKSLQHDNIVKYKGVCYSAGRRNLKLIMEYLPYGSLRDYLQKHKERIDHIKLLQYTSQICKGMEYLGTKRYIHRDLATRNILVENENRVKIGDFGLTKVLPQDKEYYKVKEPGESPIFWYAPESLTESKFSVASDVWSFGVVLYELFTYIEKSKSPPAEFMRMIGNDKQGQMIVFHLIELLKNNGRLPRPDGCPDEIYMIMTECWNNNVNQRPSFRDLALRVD

| SMILES | Kd [1] | inhibition at 10 µM [2] | inhibition at 10 µM [3] | Tyk2 JH1% Inhibition @ 10 μM [2] | JAK2 JH1% Inhibition @ 10 μM [3] |
| --- | --- | --- | --- | --- | --- |
| CNc1cc(Nc2cc(F)cn(C3CCCOC3)c2=O)nc2c(C(=O)NC3CC3)cnn12 (stereo not drawn) [I-494] | 0.2 to 1 nM | < 50% | < 50% | – | – |
| CNc1cc(Nc2cccn(C3=NC(C)(C)CS3)c2=O)nc2c(C(=O)NC3CC3)cnn12 [I-502] | 0.2 to 1 nM | < 50% | < 50% | – | – |
| CNc1cc(Nc2cccn(C3=NC(C)(C)CS3)c2=O)nc2c(C(=O)NC3CCC3)cnn12 [I-503] | 0.2 to 1 nM | < 50% | < 50% | – | – |
| CNc1cc(Nc2cccn(-c3nn(C)c(C)c3C)c2=O)nc2c(C(=O)NC3CC3)cnn12 [I-504] | 0.2 to 1 nM | < 50% | < 50% | – | – |
| CNc1cc(Nc2cccn(-c3nn(C)c(C)c3C)c2=O)nc2c(C(=O)N[C@@H]3C[C@@H]3F)cnn12 [I-505] | 0.2 to 1 nM | < 50% | < 50% | – | – |
| CNc1cc(Nc2cccc(C3CCCOC3)n2)nc2c(C(=O)NC3CC3)cnn12 (stereo not drawn) [I-508] | 0.2 to 1 nM | < 50% | < 50% | – | – |
| CNc1cc(Nc2cccn([C@H]3CCCN(C)C3)c2=O)nc2c(C(=O)NC3CC3)cnn12 [I-511] | 0.2 to 1 nM | < 50% | < 50% | – | – |
| CNc1cc(Nc2cccn(CCOC3CC3)c2=O)nc2c(C(=O)N[C@H]3CC[C@@H]3O)cnn12 [I-514, 5-((1-(2-cyclopropoxyethyl)-2-oxo-1,2-dihydropyridin-3-yl)amino)-N-((1 S,2S)-2-hydroxycyclobutyl)-7-(methylamino)pyrazolo[1,5-a]pyrimidine-3-carboxamide] | 1 to 10 nM | < 50% | < 50% | – | – |
| CNc1cc(Nc2cccn(CCOC3CC3)c2=O)nc2c(C(=O)N[C@@H]3CC[C@@H]3O)cnn12 [I-516] | 1 to 10 nM | – | – | A (percent inhibition at 10 μM lower than 50) | A (percent inhibition at 10 μM lower than 50) |
| CNc1cc(-c2nn([C@@H]3CCOC3)c3ncccc23)nc2c(C(=O)N[C@@H]3C[C@@H]3F)cnn12 [I-517] | 0.2 to 1 nM | < 50% | < 50% | – | – |
| CNc1cc(-c2nn([C@H]3CCOC3)c3ncccc23)nc2c(C(=O)N[C@@H]3C[C@@H]3F)cnn12 [I-518] | 0.2 to 1 nM | < 50% | < 50% | – | – |
| CNc1cc(Nc2cccn(C3=NC(C)(C)CS3)c2=O)nc2c(C(=O)N[C@@H]3C[C@@H]3F)cnn12 [I-526] | 0.2 to 1 nM | < 50% | < 50% | – | – |
| CNc1cc(Nc2cccn(C3CCOCC3)c2=O)nc2c(C(=O)N[C@H]3CC[C@H]3O)cnn12 [I-527] | 0.2 to 1 nM | < 50% | < 50% | – | – |
| CNc1cc(Nc2cccc(C3CCCCO3)n2)nc2c(C(=O)NCC3(CO)CC3)cnn12 (stereo not drawn) [I-530] | 0.2 to 1 nM | < 50% | < 50% | – | – |
| CNc1cc(Nc2ccc3c(n2)OCCO3)nc2c(C(=O)NC3CC3)cnn12 [I-531] | 0.2 to 1 nM | < 50% | < 50% | – | – |
| CNc1cc(Nc2ccc3c(n2)OCCO3)nc2c(C(=O)N[C@H]3C[C@H]3F)cnn12 [I-532] | 0.2 to 1 nM | < 50% | < 50% | – | – |
| CNc1cc(Nc2cc(F)cn([C@H]3CCCOC3)c2=O)nc2c(C(=O)NC3CC3)cnn12 [I-534] | 0.2 to 1 nM | < 50% | < 50% | – | – |
| CNc1cc(Nc2cccn([C@@H]3CCCN(C)C3)c2=O)nc2c(C(=O)N[C@@H]3C[C@@H]3F)cnn12 [I-536] | 0.2 to 1 nM | < 50% | < 50% | – | – |
| CNc1cc(Nc2cccn([C@@H]3CCC[C@@H]3OC)c2=O)nc2c(C(=O)N[C@@H]3C[C@@H]3F)cnn12 [I-537] | 1 to 10 nM | – | – | A (percent inhibition at 10 μM lower than 50) | A (percent inhibition at 10 μM lower than 50) |
| CNc1cc(Nc2cccn([C@H]3CCC[C@H]3OC)c2=O)nc2c(C(=O)N[C@@H]3C[C@@H]3F)cnn12 [I-538] | 1 to 10 nM | < 50% | < 50% | – | – |
| CNc1cc(Nc2cccn(C3CCN(C)CC3)c2=O)nc2c(C(=O)NCC(C)(C)CO)cnn12 [I-542] | 0.2 to 1 nM | < 50% | < 50% | – | – |

More lines, main results first:

| Kd [1] | inhibition at 10 µM [2] | inhibition at 10 µM [3] | SMILES | Tyk2 JH1% Inhibition @ 10 μM [2] | JAK2 JH1% Inhibition @ 10 μM [3] |
| --- | --- | --- | --- | --- | --- |
| 0.2 to 1 nM | < 50% | < 50% | [2H]C([2H])([2H])Oc1ncccc1Nc1cc(NC)n2ncc(C(=O)NC(C)(C)C#N)c2n1 [I-493, N-(2-cyanopropan-2-yl)-5-((2-(methoxy-d3)pyridin-3-yl)amino)-7-(methylamino)pyrazolo[1,5-a]pyrimidine-3-carboxamide] | – | – |
| < 0.2 nM | < 50% | < 50% | CNc1cc(Nc2cccnc2OC)nc2c(C(=O)N[C@H]3CCC[C@H](O)C3)cnn12 [I-496] | – | – |
| < 0.2 nM | – | – | CNc1cc(Nc2cccnc2OC)nc2c(C(=O)N[C@@H]3CCC[C@@H](O)C3)cnn12 [I-497] | A (percent inhibition at 10 μM lower than 50) | A (percent inhibition at 10 μM lower than 50) |
| < 0.2 nM | – | – | [2H]C([2H])([2H])Oc1ncccc1Nc1cc(NC)n2ncc(C(=O)N[C@H]3CCC[C@H](O)C3)c2n1 [I-498] | A (percent inhibition at 10 μM lower than 50) | A (percent inhibition at 10 μM lower than 50) |
| < 0.2 nM | < 50% | < 50% | [2H]C([2H])([2H])Oc1ncccc1Nc1cc(NC)n2ncc(C(=O)N[C@@H]3CC[C@@H](O)C3)c2n1 [I-501] | – | – |
| < 0.2 nM | < 50% | < 50% | CNc1cc(Nc2cccn(C3CCCN(C)C3)c2=O)nc2c(C(=O)N[C@@H]3C[C@@H]3F)cnn12 (stereo partly drawn) [I-506] | – | – |
| 0.2 to 1 nM | < 50% | < 50% | CNc1cc(Nc2cccn([C@@H]3CCC[C@@H]3OC)c2=O)nc2c(C(=O)N[C@@H]3C[C@@H]3F)cnn12 [I-507] | – | – |
| < 0.2 nM | < 50% | < 50% | CNc1cc(Nc2cccn(C3CCOCC3)c2=O)nc2c(C(=O)NCC(C)(C)CO)cnn12 [I-509] | – | – |
| < 0.2 nM | < 50% | < 50% | CNc1cc(Nc2cccn([C@@H]3CCCN(C)C3)c2=O)nc2c(C(=O)NC3CC3)cnn12 [I-512] | – | – |
| < 0.2 nM | – | – | CNc1cc(Nc2cccn(CCOC3CC3)c2=O)nc2c(C(=O)N[C@@H]3CC[C@H]3O)cnn12 [I-513] | A (percent inhibition at 10 μM lower than 50) | A (percent inhibition at 10 μM lower than 50) |
| < 0.2 nM | < 50% | < 50% | CNc1cc(Nc2cccn(C3CCOCC3)c2=O)nc2c(C(=O)N[C@H]3CC[C@@H]3O)cnn12 [I-528] | – | – |
| < 0.2 nM | < 50% | < 50% | CNc1cc(Nc2cc(F)cn([C@@H]3CCCOC3)c2=O)nc2c(C(=O)NC3CC3)cnn12 [I-533] | – | – |
| < 0.2 nM | < 50% | < 50% | CNc1cc(Nc2cccn([C@H]3CCCN(C)C3)c2=O)nc2c(C(=O)N[C@@H]3C[C@@H]3F)cnn12 [I-535] | – | – |
